According to PubChem BioAssay (NCI):
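Following 48 hours of exposure in 96-well plates, responses at five concentrations were used to interpolate endpoints linearly. GI50: concentration for 50% inhibition of growth. Definition used: TGI = concentration required for complete inhibition of growth.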

How the values were obtained:
Assay in all cases: NCI-60 cell line screen, 48 h
OVCAR-4 ovarian = system: OVCAR-4 ovarian
RPMI-8226 leukemia = system: RPMI-8226 leukemia
K-562 leukemia = system: K-562 leukemia
786-0 renal = system: 786-0 renal
COLO 205 colon = system: COLO 205 colon
HOP-92 NSCLC = system: HOP-92 NSCLC
TK-10 renal = system: TK-10 renal
EKVX NSCLC = system: EKVX NSCLC
SN12C renal = system: SN12C renal
MALME-3M melanoma = system: MALME-3M melanoma

SMILES	GI50 (OVCAR-4 ovarian)	TGI (OVCAR-4 ovarian)	GI50 (RPMI-8226 leukemia)	TGI (RPMI-8226 leukemia)	GI50 (K-562 leukemia)	TGI (K-562 leukemia)	GI50 (786-0 renal)	TGI (786-0 renal)	GI50 (COLO 205 colon)	TGI (COLO 205 colon)	GI50 (HOP-92 NSCLC)	TGI (HOP-92 NSCLC)	GI50 (TK-10 renal)	TGI (TK-10 renal)	GI50 (EKVX NSCLC)	TGI (EKVX NSCLC)	GI50 (SN12C renal)	TGI (SN12C renal)	TGI (MALME-3M melanoma)	GI50 (MALME-3M melanoma)
N#Cc1cc2c(cc1Cl)SC(=Nc1ccccc1)N(S(=O)(=O)c1ccc(Br)s1)S2(=O)=O	20.9 µM	44 µM	23.6 µM	67.6 µM	14.5 µM	43.8 µM	16.7 µM	32.4 µM	49.1 µM	> 100 µM	17.6 µM	39.7 µM	19.7 µM	35.6 µM	19.5 µM	35.1 µM	24 µM	49.6 µM		
N#CC(C#N)C(c1ccccc1)c1ccccc1		> 100 µM		> 100 µM		> 100 µM		> 100 µM		> 100 µM		> 100 µM		> 100 µM				> 100 µM	> 100 µM	
O=C1C(=Cc2ccc(F)cc2)C(=O)c2ccccc21		> 100 µM		> 100 µM		> 100 µM		> 100 µM		> 100 µM		> 100 µM		> 100 µM		> 100 µM			> 100 µM	
O/N=C1\C(=C\c2ccc3c(c2)OCCO3)CCCC1C(NO)c1ccc2c(c1)OCCO2 (stereo not given)		> 100 µM		> 100 µM				> 100 µM		98.4 µM		93.4 µM		50.7 µM		69.6 µM		29.8 µM	63.7 µM	
O=C(N/N=C/c1ccc(N(CCCl)CCCl)cc1)c1ccc(C(=O)N/N=C/c2ccc(N(CCCl)CCCl)cc2)cc1	47.9 µM	> 100 µM	1.33 µM	15.1 µM	20.9 µM	> 100 µM	2.55 µM	> 100 µM	15.8 µM	> 100 µM	4.98 µM	88.3 µM	> 100 µM	> 100 µM			0.232 µM	> 100 µM	> 100 µM	11.2 µM
c1ccc(-c2cc3n4c(-c5ccccc5)nn(-c5ccccc5)c4cnc-3n2)cc1	31.3 µM	> 50 µM	> 50 µM	> 50 µM	> 50 µM	> 50 µM	19.8 µM	> 50 µM			12 µM	> 50 µM	19.3 µM	> 50 µM	17 µM	> 50 µM	> 50 µM	> 50 µM	> 50 µM	4.58 µM
CC/C(C)=C1\CCC(CN(C)C)C1=O (stereo not given)		32 µM		17.1 µM		79.5 µM		29.3 µM				46.2 µM		31.1 µM		44 µM		38.3 µM	39.1 µM	
CCSc1nc(N)c2cnn(CC)c2n1	49 µM	> 100 µM	2.38 µM	6.44 µM	9.11 µM	> 100 µM	26.5 µM	> 100 µM	18.9 µM	> 100 µM			4.56 µM	36.1 µM	7.79 µM	34.1 µM	4.12 µM	26.1 µM	59 µM	18 µM
CC1=C2C3OC(=O)C(C)C3C(O)C[C@@]2(C)C(=O)CC1 (stereo not given in full)		> 100 µM		> 100 µM				> 100 µM		> 100 µM		> 100 µM		> 100 µM		> 100 µM		> 100 µM	> 100 µM	
O=[N+]([O-])c1ccc2nc(-c3ccc(Cl)cc3)[nH]c2c1		> 100 µM		57.4 µM				> 100 µM		30.7 µM		64.2 µM		72.5 µM		40.3 µM		> 100 µM	63 µM	
CC(=O)OC1=C(CC(C)(C)C)C(=O)c2ccccc2C1=O		> 100 µM		39.1 µM		39.9 µM		> 100 µM		72.5 µM				> 100 µM		> 100 µM				
CCCCCC/C(CC(=O)CCC(=O)NCCc1ccccc1)=N\Nc1ccc([N+](=O)[O-])cc1[N+](=O)[O-]				81.7 µM		> 100 µM		> 100 µM		> 100 µM		> 100 µM		> 100 µM		> 100 µM		> 100 µM	> 100 µM	
Cc1cc2nc(-c3ccc(O)c(O)c3)n(Cc3ccc(O)c(O)c3)c2cc1C	54.9 µM	> 100 µM			7.43 µM	> 100 µM	34 µM	> 100 µM	24.5 µM	> 100 µM	9.7 µM	55 µM	26.9 µM	82.6 µM	79.9 µM	> 100 µM	18.5 µM	44.8 µM	> 100 µM	27.2 µM
CN(C)C(=S)/N=c1\ss/c(=N\S(=O)(=O)c2ccccc2)n1C		> 100 µM		> 100 µM		> 100 µM		> 100 µM				> 100 µM		> 100 µM		> 100 µM		> 100 µM	> 100 µM	
CCOC(=O)CN1C(=O)C(=O)N(c2ccc(OC)c3ccccc23)C1=O		> 100 µM		> 100 µM		> 100 µM		> 100 µM		> 100 µM				> 100 µM		> 100 µM		> 100 µM	> 100 µM	
CCOc1ccccc1N=Cc1c2ccccc2cc2ccccc12		> 74 µM		56.5 µM		> 67.7 µM		41.1 µM		> 88.7 µM		53.4 µM		67.2 µM		52.3 µM		61.5 µM		
O=C1CC2OCC=C3CN4CCC5(C(=O)O)C(N1)C2C3CC45 (stereo not given)		> 100 µM				> 100 µM		> 100 µM		> 100 µM		> 100 µM		> 100 µM		> 100 µM		> 100 µM	> 100 µM	
COc1ccc2c(c1)C=CC1C2CC[C@]2(C)C(NC(=O)/C=C/c3ccc(O)c(O)c3)CCC12 (stereo not given in full)			7.98 µM	39.1 µM	13.9 µM	49.6 µM	2.9 µM	15.7 µM	2.61 µM	7.75 µM	10.6 µM	26.5 µM	2.82 µM	10.3 µM	18.8 µM	56.5 µM	13.6 µM	32.2 µM		
N#CNC1=NCCC(=O)N1CCc1c[nH]c2ccccc12		> 100 µM		> 100 µM		> 100 µM		> 100 µM		> 100 µM				> 100 µM		> 100 µM		> 100 µM		
